One assay relates to MCF-7 cells. Briefly: cells. The settings on record: Homo sapiens, MCF7, 144 h, read-out: MCF7 Proliferation IC50 (nM).
The next assay addresses ERα_LBD(GST) (Homo sapiens (Human), UniProt P03372). Briefly: LanthaScreen TR-FRET ERα competitive binding assay. The settings on record: read-out: ERα HTRF IC50. In a few lines: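 GST-tagged ERα LBD (4 nM) with Tb anti-GST (2 nM) and Fluormone ES2 Green tracer (3 nM) in nuclear receptor buffer K plus 5 mM DTT, 1% DMSO; 3-fold compound dilutions, 60 min at room temperature in the dark. TR-FRET 520/495 nm ratio vs log[ligand], sigmoidal fit for IC50; 1 μM ARV_471 as full-inhibition control.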
In general terms: TR-FRET usually uses a lanthanide donor and a delayed reading to cut background.

The target in assay [1] is T1, ER (Homo sapiens (Human), UniProt P03372). Briefly: In-cell western (ICW) ER degradation assay in T47D cells. The settings on record: 16 hrs; for DC50: ER degradation; for Dmax: maximal ER degradation. In kind it is cell-based.
A further assay concerns T47D cells. Briefly: cells. The settings on record: Homo sapiens, 144 h, read-out: T47D Proliferation IC50 (nM).
For a further assay, the target named is CRBN/DDB1 (Homo sapiens (Human), UniProt Q96SW2). Briefly: HTRF binding assay to CRBN/DDB1. The note with it: read-out: CRBN HTRF IC50. Here is the method: The binding potency was determined using HTRF assay technology (Perkin Elmer). Compounds were serially diluted in DMSO and 0.2 μL volume was transferred to white 384-well plate.
In assay [2] the target is T1, ER. Briefly: In-cell western (ICW) ER degradation assay in MCF-7 cells. The settings on record: MCF7, 16 hrs; for DC50: ER degradation; for Dmax: MCF7, maximal ER degradation. In kind it is cell-based.

Chain of CRBN/DDB1 (Q96SW2 whole entry): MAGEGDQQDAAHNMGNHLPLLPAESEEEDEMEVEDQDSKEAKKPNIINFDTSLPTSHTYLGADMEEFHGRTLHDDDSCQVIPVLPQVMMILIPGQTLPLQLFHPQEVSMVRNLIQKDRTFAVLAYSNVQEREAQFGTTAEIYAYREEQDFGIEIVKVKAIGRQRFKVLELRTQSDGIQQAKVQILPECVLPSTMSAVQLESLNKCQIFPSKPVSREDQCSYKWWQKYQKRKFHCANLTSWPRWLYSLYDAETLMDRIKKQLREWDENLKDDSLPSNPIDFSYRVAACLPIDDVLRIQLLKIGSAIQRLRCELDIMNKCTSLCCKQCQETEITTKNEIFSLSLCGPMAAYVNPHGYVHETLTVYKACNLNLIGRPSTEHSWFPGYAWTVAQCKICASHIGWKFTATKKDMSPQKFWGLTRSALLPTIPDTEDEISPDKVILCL
Chain of CRBN/DDB1 (Q16531 whole entry partner): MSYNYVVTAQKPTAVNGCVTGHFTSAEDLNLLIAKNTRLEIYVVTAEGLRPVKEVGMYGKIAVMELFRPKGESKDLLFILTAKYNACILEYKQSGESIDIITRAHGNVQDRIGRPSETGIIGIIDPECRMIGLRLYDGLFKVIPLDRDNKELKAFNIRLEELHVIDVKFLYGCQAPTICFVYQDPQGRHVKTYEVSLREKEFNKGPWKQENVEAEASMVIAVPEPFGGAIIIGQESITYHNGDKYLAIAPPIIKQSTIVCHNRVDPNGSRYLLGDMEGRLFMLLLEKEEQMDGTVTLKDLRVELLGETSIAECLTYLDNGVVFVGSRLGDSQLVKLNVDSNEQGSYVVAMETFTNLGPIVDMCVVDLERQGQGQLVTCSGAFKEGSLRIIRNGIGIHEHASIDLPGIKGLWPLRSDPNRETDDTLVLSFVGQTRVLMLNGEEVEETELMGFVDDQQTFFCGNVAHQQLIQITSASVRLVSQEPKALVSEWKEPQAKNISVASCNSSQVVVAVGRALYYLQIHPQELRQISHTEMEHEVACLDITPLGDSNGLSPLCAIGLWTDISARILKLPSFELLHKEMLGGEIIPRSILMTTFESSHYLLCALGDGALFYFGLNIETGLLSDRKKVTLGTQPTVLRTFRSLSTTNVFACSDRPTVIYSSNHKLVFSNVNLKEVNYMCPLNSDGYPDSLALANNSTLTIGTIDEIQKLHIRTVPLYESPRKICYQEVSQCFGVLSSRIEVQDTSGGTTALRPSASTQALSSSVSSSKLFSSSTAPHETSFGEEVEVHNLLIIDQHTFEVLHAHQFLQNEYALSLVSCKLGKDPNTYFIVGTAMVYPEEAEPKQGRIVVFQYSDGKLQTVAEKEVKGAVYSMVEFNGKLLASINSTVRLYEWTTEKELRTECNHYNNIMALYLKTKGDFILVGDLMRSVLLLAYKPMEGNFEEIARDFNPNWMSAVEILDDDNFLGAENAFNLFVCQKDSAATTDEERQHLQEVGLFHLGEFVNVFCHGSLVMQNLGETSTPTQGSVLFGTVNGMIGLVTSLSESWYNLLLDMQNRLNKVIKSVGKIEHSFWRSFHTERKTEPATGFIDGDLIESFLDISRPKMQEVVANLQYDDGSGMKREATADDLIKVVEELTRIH
Chain of ERα_LBD(GST) (P03372 311-547): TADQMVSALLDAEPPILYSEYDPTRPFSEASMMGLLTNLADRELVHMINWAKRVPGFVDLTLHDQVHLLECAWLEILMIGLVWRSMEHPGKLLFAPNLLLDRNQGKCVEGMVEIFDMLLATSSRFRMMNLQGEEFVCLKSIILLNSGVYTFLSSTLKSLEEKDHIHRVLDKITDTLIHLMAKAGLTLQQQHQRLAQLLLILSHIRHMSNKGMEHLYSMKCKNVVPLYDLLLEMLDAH
T1 sequence (P03372 whole entry): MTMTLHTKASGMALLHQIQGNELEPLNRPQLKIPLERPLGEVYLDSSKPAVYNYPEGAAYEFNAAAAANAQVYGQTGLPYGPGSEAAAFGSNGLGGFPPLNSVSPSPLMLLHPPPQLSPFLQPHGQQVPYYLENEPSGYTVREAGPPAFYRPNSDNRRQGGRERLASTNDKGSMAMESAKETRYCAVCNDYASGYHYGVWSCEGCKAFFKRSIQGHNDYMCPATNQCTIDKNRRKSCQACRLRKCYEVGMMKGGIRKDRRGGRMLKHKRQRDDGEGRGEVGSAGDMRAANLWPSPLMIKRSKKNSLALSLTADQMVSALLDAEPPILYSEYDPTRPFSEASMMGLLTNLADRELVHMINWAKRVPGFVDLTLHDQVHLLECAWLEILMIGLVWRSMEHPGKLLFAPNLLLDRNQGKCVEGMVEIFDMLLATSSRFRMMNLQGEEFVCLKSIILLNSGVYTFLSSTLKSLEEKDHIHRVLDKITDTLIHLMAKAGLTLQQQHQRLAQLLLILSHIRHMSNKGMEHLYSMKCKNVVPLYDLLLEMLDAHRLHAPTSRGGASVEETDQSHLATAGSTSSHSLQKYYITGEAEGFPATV

Broadly, the DC50 is the midpoint of the concentration-degradation curve. Read a high DC50 as degradation only at high concentration. A word on the Dmax: it is the largest share of the target that was removed. The low end stands for shallow degradation, the high end for deep degradation. Turning to `O=C1CCC(N2Cc3cc(N4CCN(CC5CCN(c6ccc([C@@H]7c8ccc(O)cc8OC[C@@H]7c7ccccc7)cc6)CC5)CC4)ccc3C2=O)C(=O)N1` (single isomer, unassigned) [Compound A62], the IC50 in the assay with MCF-7 cells is less than 50 nM; on ERα_LBD(GST), less than 0.005 µM; with T47D cells, less than 50 nM; on CRBN/DDB1, 0.05 to 0.5 µM. The 50% degradation concentration (DC50) on ER [1] and at ER [2] was less than 0.001 µM each time. The Dmax on ER [1] and at ER [2] was 50 to 75% in each case.
On to `COc1cc(C(=O)NC2CCC(=O)NC2=O)ncc1N1CCN(CC2CCC3(CC2)CN(c2ccc([C@H]4c5ccc(O)cc5OC[C@H]4c4ccccc4)cc2)C3)CC1` (mixture of isomers) [Compound A117, N-(2,6-dioxopiperidin-3-yl)-5-(4-((2-(4-((3R,4S)-7-hydroxy-3-phenylchroman-4-yl)phenyl)-2-azaspiro[3.5]nonan-7-yl)methyl)piperazin-1-yl)-4-methoxypicolinamide], for which the IC50 is less than 50 nM in the assay on MCF-7 cells, less than 0.005 µM on ERα_LBD(GST), less than 50 nM in the assay on T47D cells and 0.5 to 5 µM on CRBN/DDB1. In addition, the 50% degradation concentration (DC50) at ER [1] and on ER [2] was less than 0.001 µM each time. Further, the greatest degradation seen (Dmax) at ER [1] and at ER [2] was not below 75% in each case.
As for `O=C1CC[C@H](N2Cc3c(ccc4c3OC[C@H]3CN(CC5CC6(CCN(c7ccc([C@H]8c9ccc(O)cc9OC[C@H]8c8ccccc8)cc7)CC6)C5)CCN43)C2=O)C(=O)N1` (single isomer, unassigned) [Compound A50], the IC50 is 50 to 500 nM with MCF-7 cells, less than 0.005 µM on ERα_LBD(GST), 50 to 500 nM in the assay with T47D cells and 0.05 to 0.5 µM at CRBN/DDB1. Further, the DC50 on ER [1] was less than 0.001 µM; at ER [2] it was 0.001 to 0.01 µM. In addition, the Dmax on ER [1] and at ER [2] was 50 to 75% throughout.

For the origin of these results see patent US20260000676A1, “CHROMAN DERIVATIVES AS ESTROGEN RECEPTOR DEGRADERS” (THE REGENTS OF THE UNIVERSITY OF MICHIGAN, priority 2022, published 2026).
